# Tests used:
# Assay in all cases: kinobeads assay with mass spectrometry detection of kinases (kinase selectivity profile)
# Assay type in all cases: binding
# [1] = target: T1, kinases (kinome) (Homo sapiens, UniProt O43353); details: RIPK2 (TKL), IPI00021917
# T1 construct: determined in kinobeads assays with mass spectrometry detection of kinases as described previously; endogenous in cells; host or cells: cell lysate
# Source text: (§1) The protein kinase complement of the human genome (the kinome) was described previously (Manning et al., 2002. Science 298(5600):1912-1934). Sequence accession numbers are defined by the International Protein Index (IPI) (Kersey et al., 2004. Proteomics 4(7):1985-1988).
# [2] = target: T2, kinases (kinome) (Homo sapiens, UniProt P06241); details: FYN (TK), IPI00219012
# T2 construct: determined in kinobeads assays with mass spectrometry detection of kinases as described previously; endogenous in cells; host or cells: cell lysate
# Source text: as §1
# [3] = target: T3, kinases (kinome) (Homo sapiens, UniProt P28482); details: Erk2 (CMGC), IPI00003479
# T3 construct: determined in kinobeads assays with mass spectrometry detection of kinases as described previously; endogenous in cells; host or cells: cell lysate
# Source text: as §1
# [4] = target: T4, kinases (kinome) (Homo sapiens, UniProt P41240); details: CSK (TK), IPI00013212
# T4 construct: determined in kinobeads assays with mass spectrometry detection of kinases as described previously; endogenous in cells; host or cells: cell lysate
# Source text: as §1
# [5] = target: T5, kinases (kinome) (Homo sapiens, UniProt P42345); details: mTOR (Atypical), IPI00031410; 0.1 μM ranges
# T5 construct: determined in kinobeads assays with mass spectrometry detection of kinases as described previously; endogenous in cells; host or cells: cell lysate
# Source text: as §1
# [6] = target: T6, kinases (kinome) (Homo sapiens, UniProt P49840); details: GSK3A (CMGC), IPI00292228
# T6 construct: determined in kinobeads assays with mass spectrometry detection of kinases as described previously; endogenous in cells; host or cells: cell lysate
# Source text: as §1
# [7] = target: T7, kinases (kinome) (Homo sapiens, UniProt Q13163); details: MAP2K5 (STE), IPI00158248
# T7 construct: determined in kinobeads assays with mass spectrometry detection of kinases as described previously; endogenous in cells; host or cells: cell lysate
# T7 sequence (Q13163 1-448): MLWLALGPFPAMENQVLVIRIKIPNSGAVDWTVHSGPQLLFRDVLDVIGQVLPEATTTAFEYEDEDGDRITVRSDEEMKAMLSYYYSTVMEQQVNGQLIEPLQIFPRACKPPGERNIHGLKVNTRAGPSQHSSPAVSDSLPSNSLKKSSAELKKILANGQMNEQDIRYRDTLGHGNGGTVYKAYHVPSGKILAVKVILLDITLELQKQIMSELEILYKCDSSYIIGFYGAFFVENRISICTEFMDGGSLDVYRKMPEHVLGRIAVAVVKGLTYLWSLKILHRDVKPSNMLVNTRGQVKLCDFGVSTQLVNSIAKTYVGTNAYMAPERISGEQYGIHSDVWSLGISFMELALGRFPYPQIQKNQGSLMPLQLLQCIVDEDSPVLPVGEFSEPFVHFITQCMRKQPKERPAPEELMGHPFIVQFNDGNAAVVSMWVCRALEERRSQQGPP
# Source text: as §1
# [8] = target: T8, kinases (kinome) (Homo sapiens, UniProt Q15059); details: BRD3 (Atypical), IPI00014266
# T8 construct: determined in kinobeads assays with mass spectrometry detection of kinases as described previously; endogenous in cells; host or cells: cell lysate
# Source text: as §1
# [9] = target: T9, kinases (kinome) (Homo sapiens, UniProt Q15569); details: TESK1 (TKL), IPI00018182
# T9 construct: determined in kinobeads assays with mass spectrometry detection of kinases as described previously; endogenous in cells; host or cells: cell lysate
# Source text: as §1
# [10] = target: T10, kinases (kinome) (Homo sapiens, UniProt Q9UL54); details: TAO2 (STE), IPI00006283
# T10 construct: determined in kinobeads assays with mass spectrometry detection of kinases as described previously; endogenous in cells; host or cells: cell lysate
# T10 sequence (Q9UL54 1-1235): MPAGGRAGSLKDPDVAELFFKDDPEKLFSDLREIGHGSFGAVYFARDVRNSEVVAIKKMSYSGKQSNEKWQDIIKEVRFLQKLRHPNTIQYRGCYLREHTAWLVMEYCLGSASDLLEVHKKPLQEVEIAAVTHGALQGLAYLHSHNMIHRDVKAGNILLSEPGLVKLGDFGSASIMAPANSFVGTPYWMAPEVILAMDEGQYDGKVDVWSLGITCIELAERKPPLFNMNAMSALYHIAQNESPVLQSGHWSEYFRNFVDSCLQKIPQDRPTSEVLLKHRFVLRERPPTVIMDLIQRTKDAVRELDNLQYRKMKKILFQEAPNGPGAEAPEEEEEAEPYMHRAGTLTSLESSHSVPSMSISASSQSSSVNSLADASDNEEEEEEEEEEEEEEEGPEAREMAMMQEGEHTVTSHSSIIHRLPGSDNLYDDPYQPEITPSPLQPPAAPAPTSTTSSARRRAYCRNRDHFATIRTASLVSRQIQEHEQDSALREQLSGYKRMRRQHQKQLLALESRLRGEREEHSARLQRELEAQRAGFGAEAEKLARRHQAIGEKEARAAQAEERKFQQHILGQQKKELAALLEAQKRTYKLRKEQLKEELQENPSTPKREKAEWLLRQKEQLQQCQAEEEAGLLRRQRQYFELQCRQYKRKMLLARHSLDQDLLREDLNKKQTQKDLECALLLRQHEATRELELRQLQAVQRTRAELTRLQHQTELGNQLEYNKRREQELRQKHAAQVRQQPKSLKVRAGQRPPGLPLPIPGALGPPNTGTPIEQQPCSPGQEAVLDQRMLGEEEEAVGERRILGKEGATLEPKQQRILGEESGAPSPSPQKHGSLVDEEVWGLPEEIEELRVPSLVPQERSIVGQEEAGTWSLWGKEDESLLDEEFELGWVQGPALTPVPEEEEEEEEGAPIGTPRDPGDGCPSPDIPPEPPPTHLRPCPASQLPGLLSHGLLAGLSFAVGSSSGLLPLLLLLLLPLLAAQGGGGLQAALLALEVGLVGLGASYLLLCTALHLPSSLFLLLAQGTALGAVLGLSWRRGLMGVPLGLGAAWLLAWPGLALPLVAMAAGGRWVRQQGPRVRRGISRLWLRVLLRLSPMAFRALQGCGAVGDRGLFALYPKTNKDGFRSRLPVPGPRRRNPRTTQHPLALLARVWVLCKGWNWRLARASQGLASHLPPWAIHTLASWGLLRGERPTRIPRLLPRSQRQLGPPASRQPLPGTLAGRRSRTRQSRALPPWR
# Source text: as §1
# T3 sequence (P28482 whole entry): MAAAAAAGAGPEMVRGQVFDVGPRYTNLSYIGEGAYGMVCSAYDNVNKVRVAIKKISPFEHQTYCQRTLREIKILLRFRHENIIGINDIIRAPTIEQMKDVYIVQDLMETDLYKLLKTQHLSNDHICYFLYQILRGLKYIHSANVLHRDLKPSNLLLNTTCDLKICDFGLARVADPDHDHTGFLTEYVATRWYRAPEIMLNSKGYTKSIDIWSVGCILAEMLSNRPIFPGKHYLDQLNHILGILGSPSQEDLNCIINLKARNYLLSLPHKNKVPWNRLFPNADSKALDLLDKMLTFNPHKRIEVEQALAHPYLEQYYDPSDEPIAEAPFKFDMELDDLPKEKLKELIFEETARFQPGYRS
# T9 sequence (Q15569 whole entry): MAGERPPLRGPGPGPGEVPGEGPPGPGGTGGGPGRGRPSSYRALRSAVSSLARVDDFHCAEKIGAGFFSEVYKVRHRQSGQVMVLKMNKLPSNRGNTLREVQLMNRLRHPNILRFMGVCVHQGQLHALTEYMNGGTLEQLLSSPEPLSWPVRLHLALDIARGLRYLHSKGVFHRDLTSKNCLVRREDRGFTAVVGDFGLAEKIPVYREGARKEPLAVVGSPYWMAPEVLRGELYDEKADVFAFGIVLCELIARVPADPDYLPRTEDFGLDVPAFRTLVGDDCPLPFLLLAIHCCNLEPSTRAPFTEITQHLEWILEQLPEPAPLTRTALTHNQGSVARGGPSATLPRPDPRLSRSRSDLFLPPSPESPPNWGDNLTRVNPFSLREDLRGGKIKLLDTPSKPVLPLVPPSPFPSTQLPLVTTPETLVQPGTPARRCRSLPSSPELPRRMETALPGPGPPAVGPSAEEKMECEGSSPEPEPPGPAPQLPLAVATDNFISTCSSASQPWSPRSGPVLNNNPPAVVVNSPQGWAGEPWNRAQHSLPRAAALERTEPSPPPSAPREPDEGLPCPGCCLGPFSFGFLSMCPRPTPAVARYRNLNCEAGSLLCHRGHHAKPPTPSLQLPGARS
# T8 sequence (Q15059 whole entry): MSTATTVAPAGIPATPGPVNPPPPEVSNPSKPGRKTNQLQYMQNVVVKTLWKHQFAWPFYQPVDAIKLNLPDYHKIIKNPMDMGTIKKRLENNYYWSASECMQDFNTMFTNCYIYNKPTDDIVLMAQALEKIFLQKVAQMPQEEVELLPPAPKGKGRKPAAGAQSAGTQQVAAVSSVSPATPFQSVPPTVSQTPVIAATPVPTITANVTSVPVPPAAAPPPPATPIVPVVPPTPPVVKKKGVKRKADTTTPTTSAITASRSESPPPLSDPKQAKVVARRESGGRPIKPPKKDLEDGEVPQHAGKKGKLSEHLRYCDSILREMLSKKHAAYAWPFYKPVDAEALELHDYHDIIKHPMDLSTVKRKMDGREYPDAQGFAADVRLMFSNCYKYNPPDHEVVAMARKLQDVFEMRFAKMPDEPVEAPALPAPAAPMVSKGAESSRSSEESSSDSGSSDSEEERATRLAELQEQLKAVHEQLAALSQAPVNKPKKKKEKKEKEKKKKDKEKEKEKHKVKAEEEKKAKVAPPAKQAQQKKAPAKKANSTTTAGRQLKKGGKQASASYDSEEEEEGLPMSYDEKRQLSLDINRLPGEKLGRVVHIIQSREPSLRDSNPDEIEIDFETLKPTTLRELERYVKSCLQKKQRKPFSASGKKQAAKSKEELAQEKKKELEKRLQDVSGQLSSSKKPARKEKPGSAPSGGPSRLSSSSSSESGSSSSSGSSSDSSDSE
# T6 sequence (P49840 whole entry): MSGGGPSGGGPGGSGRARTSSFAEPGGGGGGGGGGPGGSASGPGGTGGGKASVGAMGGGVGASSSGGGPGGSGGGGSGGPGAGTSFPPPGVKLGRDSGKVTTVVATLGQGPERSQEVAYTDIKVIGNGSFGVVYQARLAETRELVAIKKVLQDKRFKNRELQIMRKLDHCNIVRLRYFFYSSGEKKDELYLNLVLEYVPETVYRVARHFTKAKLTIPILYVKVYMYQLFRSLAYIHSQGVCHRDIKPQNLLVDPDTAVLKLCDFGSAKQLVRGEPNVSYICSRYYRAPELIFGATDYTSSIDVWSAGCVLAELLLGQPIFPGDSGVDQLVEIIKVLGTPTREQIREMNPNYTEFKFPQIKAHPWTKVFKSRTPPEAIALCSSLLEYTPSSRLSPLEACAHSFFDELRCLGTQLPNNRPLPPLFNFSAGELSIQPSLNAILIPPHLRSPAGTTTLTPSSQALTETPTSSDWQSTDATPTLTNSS
# T1 sequence (O43353 whole entry): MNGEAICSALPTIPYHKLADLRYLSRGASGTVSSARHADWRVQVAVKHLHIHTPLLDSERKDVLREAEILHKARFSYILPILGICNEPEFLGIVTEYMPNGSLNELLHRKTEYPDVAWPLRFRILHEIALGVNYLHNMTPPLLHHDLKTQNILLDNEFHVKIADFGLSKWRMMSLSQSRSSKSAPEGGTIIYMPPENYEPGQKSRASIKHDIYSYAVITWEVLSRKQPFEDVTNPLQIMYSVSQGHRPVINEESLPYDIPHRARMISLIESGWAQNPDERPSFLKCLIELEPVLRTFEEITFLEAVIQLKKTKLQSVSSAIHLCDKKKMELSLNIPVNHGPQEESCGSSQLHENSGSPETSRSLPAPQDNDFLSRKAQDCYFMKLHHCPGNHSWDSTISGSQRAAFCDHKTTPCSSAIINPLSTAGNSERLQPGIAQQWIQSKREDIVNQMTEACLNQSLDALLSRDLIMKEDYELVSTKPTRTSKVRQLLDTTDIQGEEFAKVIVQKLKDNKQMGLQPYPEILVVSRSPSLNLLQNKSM
# T2 sequence (P06241 whole entry): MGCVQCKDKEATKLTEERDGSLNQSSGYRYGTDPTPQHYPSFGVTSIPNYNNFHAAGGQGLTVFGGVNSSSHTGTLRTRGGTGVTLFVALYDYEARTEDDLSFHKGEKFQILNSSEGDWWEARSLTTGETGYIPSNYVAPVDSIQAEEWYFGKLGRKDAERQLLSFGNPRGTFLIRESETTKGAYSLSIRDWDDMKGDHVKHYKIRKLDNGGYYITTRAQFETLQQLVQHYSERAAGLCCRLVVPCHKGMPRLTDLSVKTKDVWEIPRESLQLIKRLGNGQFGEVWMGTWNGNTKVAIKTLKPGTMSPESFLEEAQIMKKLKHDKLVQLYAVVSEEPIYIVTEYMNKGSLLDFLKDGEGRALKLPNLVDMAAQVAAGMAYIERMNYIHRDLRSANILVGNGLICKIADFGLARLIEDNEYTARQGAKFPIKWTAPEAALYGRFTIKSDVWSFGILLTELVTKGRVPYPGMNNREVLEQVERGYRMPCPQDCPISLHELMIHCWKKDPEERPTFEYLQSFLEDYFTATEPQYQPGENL
# T4 sequence (P41240 whole entry): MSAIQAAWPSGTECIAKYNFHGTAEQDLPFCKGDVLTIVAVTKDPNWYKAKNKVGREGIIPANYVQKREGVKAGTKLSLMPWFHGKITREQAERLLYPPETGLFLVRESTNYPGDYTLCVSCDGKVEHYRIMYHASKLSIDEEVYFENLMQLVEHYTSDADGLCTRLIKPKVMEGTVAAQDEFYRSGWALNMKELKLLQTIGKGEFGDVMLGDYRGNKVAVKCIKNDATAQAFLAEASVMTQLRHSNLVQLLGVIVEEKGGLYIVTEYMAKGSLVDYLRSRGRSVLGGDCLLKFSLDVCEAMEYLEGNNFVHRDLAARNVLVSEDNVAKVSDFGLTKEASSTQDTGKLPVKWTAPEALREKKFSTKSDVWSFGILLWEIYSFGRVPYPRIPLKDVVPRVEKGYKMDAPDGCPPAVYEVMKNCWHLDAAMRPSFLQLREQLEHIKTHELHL
Compound,IC50 [1],IC50 [2],IC50 [3],IC50 [4],IC50 [5],IC50 [6],IC50 [7],IC50 [8],IC50 [9],IC50 [10]
"C[C@H]1COCCN1c1nc(-c2ccc(NC(=O)NC3CC3)cc2)cc(-c2ccccc2S(C)(=O)=O)n1 [Example 4, (S)-1-cyclopropyl-3-(4-(2-(3-methylmorpholino)-6-(2-(methylsulfonyl)phenyl)pyrimidin-4-yl)phenyl)urea]",> 10 µM,> 10 µM,> 10 µM,> 10 µM,0.3 to 0.4 µM,> 10 µM,> 10 µM,> 10 µM,> 10 µM,> 10 µM
"C[C@H]1COCCN1c1cc(-c2ccccc2S(C)(=O)=O)nc(-c2ccc(NC(=O)NC3CC3)cc2)n1 [Example 6, (S)-1-cyclopropyl-3-(4-(4-(3-methylmorpholino)-6-(2-(methylsulfonyl)phenyl)pyrimidin-2-yl)phenyl)urea]",> 10 µM,> 10 µM,> 10 µM,> 10 µM,0.1 to 0.2 µM,> 10 µM,> 10 µM,> 10 µM,> 10 µM,> 10 µM
"CCNC(=O)Nc1ccc(-c2cc(-c3ccccc3C#N)nc(N3CCOC[C@@H]3C)n2)cc1 [Example 8, (S)-1-(4-(6-(2-cyanophenyl)-2-(3-methylmorpholino)pyrimidin-4-yl)phenyl)-3-ethylurea]",> 10 µM,> 10 µM,> 10 µM,> 10 µM,0.1 to 0.2 µM,> 10 µM,> 10 µM,> 10 µM,> 10 µM,> 10 µM
"C[C@H]1COCCN1c1nc(-c2ccc(NC(=O)NC3CC3)cc2)cc(-c2cc(F)ccc2S(C)(=O)=O)n1 [Example 40, (S)-1-cyclopropyl-3-(4-(6-(5-fluoro-2-(methylsulfonyl)phenyl)-2-(3-methylmorpholino)pyrimidin-4-yl)phenyl)urea]",> 10 µM,> 10 µM,> 10 µM,> 10 µM,0.1 to 0.2 µM,> 10 µM,> 10 µM,> 10 µM,> 10 µM,> 10 µM
"C[C@H]1COCCN1c1cc(-c2ccccn2)nc(-c2ccc(NC(=O)NCCO)cc2)n1 [Example 43, (S)-1-(2-hydroxyethyl)-3-(4-(4-(3-methylmorpholino)-6-(pyridin-2-yl)pyrimidin-2-yl)phenyl)urea]",> 10 µM,> 10 µM,> 10 µM,> 10 µM,0.1 to 0.2 µM,> 10 µM,> 10 µM,> 10 µM,> 10 µM,> 10 µM
"C[C@H]1COCCN1c1nc(-c2ccc(NC(=O)NC3CC3)cc2)cc(-c2cccnc2S(C)(=O)=O)n1 [Example 46, (S)-1-cyclopropyl-3-(4-(2-(3-methylmorpholino)-6-(2-(methylsulfonyl)pyridin-3-yl)pyrimidin-4-yl)phenyl)urea]",> 10 µM,> 10 µM,> 10 µM,> 10 µM,0.2 to 0.3 µM,> 10 µM,> 10 µM,> 10 µM,> 10 µM,> 10 µM
"C[C@H]1COCCN1c1nc(-c2ccc(NC(=O)N[C@H]3CCC[C@@H]3O)cc2)cc(-c2cc(F)ccc2S(C)(=O)=O)n1 [Example 76, 1-(4-(6-(5-fluoro-2-(methylsulfonyl)phenyl)-2-((S)-3-methylmorpholino)pyrimidin-4-yl)phenyl)-3-((1S,2S)-2-hydroxycyclopentyl)urea]",> 10 µM,> 10 µM,> 10 µM,> 10 µM,0.1 to 0.2 µM,> 10 µM,> 10 µM,> 10 µM,,> 10 µM

# — patent US9249129B2, “Morpholino substituted urea derivatives as mTOR inhibitors” (CELLZOME LIMITED, priority 2010, dated 2016)
